Assay results as given in BindingDB's records for doi:10.1021/jm00045a011 (Eisai, 1994).

Target: Arachidonate 5-lipoxygenase (Homo sapiens)
Assay: Tested for inhibitory activity against leukotriene B4 (LTB4) production in human neutrophils

Compound: Cc1c(O)c(C)c2sc(NCc3ccc(S(N)(=O)=O)cc3)nc2c1C [4-[(6-Hydroxy-4,5,7-trimethyl-benzothiazol-2-ylamino)-methyl]-benzenesulfonamide]
- IC50: 30 nM
